Reference: US7829665B2 (priority 2005, dated 2010)

Key:
[1] = target: T1, full-length NS3/NS4A-2 (HCV NS3 protease) (Hepatitis C virus genotype 1a, UniProt P27958); assay: NS3-NS4 protease assay / NS3 inhibition assay (RETS1 substrate, fluorescence kinetic read); format: biochemical; conditions: recombinant E. coli or Baculovirus full-length NS3 with NS4A-2; read-out: NS3-NS4 IC50
T1 construct: Recombinant E. coli or Baculovirus full-length NS3 was diluted to 3.33 μM with assay buffer; made in house; host or cells: E. coli or baculovirus (BV) expression system
T1 sequence (P27958 1027-1657): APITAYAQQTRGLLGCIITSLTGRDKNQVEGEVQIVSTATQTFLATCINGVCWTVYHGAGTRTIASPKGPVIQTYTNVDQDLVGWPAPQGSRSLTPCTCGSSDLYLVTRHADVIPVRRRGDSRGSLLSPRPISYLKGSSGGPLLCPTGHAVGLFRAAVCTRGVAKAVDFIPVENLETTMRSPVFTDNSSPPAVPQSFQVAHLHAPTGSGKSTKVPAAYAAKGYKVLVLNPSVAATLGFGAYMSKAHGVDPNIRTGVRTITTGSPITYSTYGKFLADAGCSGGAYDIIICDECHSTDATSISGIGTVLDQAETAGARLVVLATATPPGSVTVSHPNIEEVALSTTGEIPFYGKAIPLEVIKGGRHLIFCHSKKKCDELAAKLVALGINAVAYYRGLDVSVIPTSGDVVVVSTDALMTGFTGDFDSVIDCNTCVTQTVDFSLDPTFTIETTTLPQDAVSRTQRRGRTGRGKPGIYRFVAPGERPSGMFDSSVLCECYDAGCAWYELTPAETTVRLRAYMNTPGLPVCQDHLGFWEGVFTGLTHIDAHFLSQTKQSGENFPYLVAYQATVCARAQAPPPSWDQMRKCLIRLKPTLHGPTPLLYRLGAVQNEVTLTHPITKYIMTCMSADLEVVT
Procedure, shortened: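 Full-length NS3 from E. coli (2 nM in assay) or baculovirus (3 nM) was precomplexed with excess NS4A-2 peptide, then preincubated 10 min at room temperature with serially diluted compounds starting at 50 microM. Reaction was started with RETS1 substrate at 8 μM before addition and read kinetically for 30 min (ex 335/em 495 nm). Four-parameter IC50s were converted to Ki by Cheng-Prusoff using Km 2.03 μM (E. coli) or 1.74 μM (BV).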

[2] = tested on: HCV sub-genomic replicon in GS4.3 cells (HuH-7 hepatoma cells); assay: Quantitation by ELISA of Neomycin phosphotransferase II (NPTII) in the HCV sub-genomic replicon, GS4.3; format: cell-based, hepatitis C virus; conditions: Hepatitis C virus, Huh-7; GS4.3 cells, 72 h incubation, NPTII ELISA; read-out: Replicon EC50
Procedure, shortened: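 HuH-7 GS4.3 cells carrying HCV sub-genomic replicon 1377/NS3-3′, treated 72 h at 37 °C without G418 with 3-fold dilutions from 10 μM to 56 pM (1% DMSO). NPTII in cell lysates measured by direct ELISA with TMB readout at 450 nm. EC50 from 4-parameter fit of percent DMSO-control signal.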

SMILES: CNc1c(NC(=O)[C@@]23C[C@H]2/C=C\CCCCC[C@H](NC(=O)OC(C)(C)C)C(=O)N2C[C@H](OC(=O)N4Cc5cccc(F)c5C4)C[C@H]2C(=O)N3)c(=O)c1=O [Compound 646]
- IC50 [1]: < 1000 nM
- EC50 [2]: > 10000 nM

SMILES: O=C1N[C@]2(C(=O)NCC3CC3)C[C@H]2/C=C\CCCCC[C@H](Nc2c(N3CCC3)c(=O)c2=O)C(=O)N2C[C@H](OC(=O)N3Cc4cccc(F)c4C3)C[C@@H]12 [Compound 647]
- IC50 [1]: < 100 nM
- EC50 [2]: < 10000 nM

SMILES: CC(C)(C)OC(=O)N[C@H]1CCCCC/C=C\[C@@H]2C[C@@]2(C(N)=O)NC(=O)[C@@H]2C[C@@H](OC(=O)N3Cc4cccc(F)c4C3)CN2C1=O [Compound 648]
- IC50 [1]: < 1000 nM
- EC50 [2]: > 10000 nM

SMILES: CC(C)(C)OC(=O)N[C@H]1CCCCC/C=C\[C@@H]2C[C@@]2(C(=O)NC(=O)C2CC2)NC(=O)[C@@H]2C[C@@H](OC(=O)N3Cc4ccccc4C3)CN2C1=O [Compound 701]
- IC50 [1]: < 100 nM
- EC50 [2]: < 100 nM

SMILES: CNC(=O)NC(=O)[C@@]12C[C@H]1/C=C\CCCCC[C@H](NC(=O)OC(C)(C)C)C(=O)N1C[C@H](OC(=O)N3Cc4ccccc4C3)C[C@H]1C(=O)N2 [Compound 702]
- IC50 [1]: < 1000 nM
- EC50 [2]: < 1000 nM

SMILES: CC(C)(C)OC(=O)N[C@H]1CCCCC/C=C\[C@@H]2C[C@@]2(C(=O)NC(=O)c2ccccc2)NC(=O)[C@@H]2C[C@@H](OC(=O)N3Cc4ccccc4C3)CN2C1=O [Compound 705]
- IC50 [1]: < 100 nM
- EC50 [2]: < 100 nM

SMILES: O=C(N[C@H]1CCCCC/C=C\[C@@H]2C[C@@]2(C(=O)NC(=O)C2CC2)NC(=O)[C@@H]2C[C@@H](OC(=O)N3CCc4ccccc4C3)CN2C1=O)OC1CCCC1 [Compound 706]
- IC50 [1]: < 100 nM
- EC50 [2]: < 100 nM

SMILES: O=C1N[C@]2(C(=O)NS(=O)(=O)C3CC3)C[C@H]2/C=C\CCCCC[C@H](NCCC(F)(F)F)C(=O)N2C[C@H](OC(=O)N3Cc4cccc(F)c4C3)C[C@@H]12 [Compound 900]
- IC50 [1]: < 100 nM
- EC50 [2]: < 100 nM

SMILES: O=C1N[C@]2(C(=O)NS(=O)(=O)C3CC3)C[C@H]2/C=C\CCCCC[C@H](NCc2cccc(C(F)(F)F)c2)C(=O)N2C[C@H](OC(=O)N3Cc4cccc(F)c4C3)C[C@@H]12 [Compound 901, (1S,4R,6S,14S,18R)-14-(3-(trifluoromethyl)benzylamino)-4-(cyclopropanesulfonyl)aminocarbonyl-18-(4-fluoro-1,3-dihydro-isoindole-2-carbonyloxyl)-2,15-dioxo-3,16-diaza-tricyclo[14.3.0.0^4,6]nonadec-7-ene]
- IC50 [1]: < 100 nM
- EC50 [2]: < 100 nM

SMILES: O=C1N[C@]2(C(=O)NS(=O)(=O)C3CC3)C[C@H]2/C=C\CCCCC[C@H](NCCCC(F)(F)F)C(=O)N2C[C@H](OC(=O)N3Cc4cccc(F)c4C3)C[C@@H]12 [Compound 902]
- IC50 [1]: < 100 nM
- EC50 [2]: < 100 nM

SMILES: O=C1N[C@]2(C(=O)NS(=O)(=O)C3CC3)C[C@H]2/C=C\CCCCC[C@H](NCc2cc(F)cc(F)c2)C(=O)N2C[C@H](OC(=O)N3Cc4cccc(F)c4C3)C[C@@H]12 [Compound 903]
- IC50 [1]: < 100 nM
- EC50 [2]: < 100 nM

SMILES: O=C1N[C@]2(C(=O)NS(=O)(=O)C3CC3)C[C@H]2/C=C\CCCCC[C@H](NCc2ccc(F)c(F)c2)C(=O)N2C[C@H](OC(=O)N3Cc4cccc(F)c4C3)C[C@@H]12 [Compound 904]
- IC50 [1]: < 100 nM
- EC50 [2]: < 100 nM

SMILES: O=C1N[C@]2(C(=O)NS(=O)(=O)C3CC3)C[C@H]2/C=C\CCCCC[C@H](NCc2ccccc2)C(=O)N2C[C@H](OC(=O)N3Cc4cccc(F)c4C3)C[C@@H]12 [Compound 905]
- IC50 [1]: < 100 nM
- EC50 [2]: < 100 nM

SMILES: COc1cccc(CN[C@H]2CCCCC/C=C\[C@@H]3C[C@@]3(C(=O)NS(=O)(=O)C3CC3)NC(=O)[C@@H]3C[C@@H](OC(=O)N4Cc5cccc(F)c5C4)CN3C2=O)c1 [Compound 906]
- IC50 [1]: < 100 nM
- EC50 [2]: < 100 nM

SMILES: O=C1N[C@]2(C(=O)NS(=O)(=O)C3CC3)C[C@H]2/C=C\CCCCC[C@H](NC2CCC2)C(=O)N2C[C@H](OC(=O)N3Cc4cccc(F)c4C3)C[C@@H]12 [Compound 907]
- IC50 [1]: < 100 nM
- EC50 [2]: < 1000 nM

SMILES: CN(C)[C@H]1CCCCC/C=C\[C@@H]2C[C@@]2(C(=O)NS(=O)(=O)C2CC2)NC(=O)[C@@H]2C[C@@H](OC(=O)N3Cc4cccc(F)c4C3)CN2C1=O [Compound 908]
- IC50 [1]: < 1000 nM
- EC50 [2]: < 10000 nM

SMILES: Cc1ccc(CN[C@H]2CCCCC/C=C\[C@@H]3C[C@@]3(C(=O)NS(=O)(=O)C3CC3)NC(=O)[C@@H]3C[C@@H](OC(=O)N4Cc5cccc(F)c5C4)CN3C2=O)o1 [Compound 909]
- IC50 [1]: < 100 nM
- EC50 [2]: < 100 nM

SMILES: O=C1N[C@]2(C(=O)NS(=O)(=O)C3CC3)C[C@H]2/C=C\CCCCC[C@H](NCC2CC2)C(=O)N2C[C@H](OC(=O)N3Cc4cccc(F)c4C3)C[C@@H]12 [Compound 910]
- IC50 [1]: < 100 nM
- EC50 [2]: < 1000 nM

SMILES: O=C1N[C@]2(C(=O)NS(=O)(=O)C3CC3)C[C@H]2/C=C\CCCCC[C@H](N(CC2CC2)CC2CC2)C(=O)N2C[C@H](OC(=O)N3Cc4cccc(F)c4C3)C[C@@H]12 [Compound 911]
- IC50 [1]: < 1000 nM
- EC50 [2]: < 10000 nM

SMILES: CC(C)(C)CCN[C@H]1CCCCC/C=C\[C@@H]2C[C@@]2(C(=O)NS(=O)(=O)C2CC2)NC(=O)[C@@H]2C[C@@H](OC(=O)N3Cc4cccc(F)c4C3)CN2C1=O [Compound 912]
- IC50 [1]: < 100 nM
- EC50 [2]: < 100 nM

SMILES: O=C1N[C@]2(C(=O)NS(=O)(=O)C3CC3)C[C@H]2/C=C\CCCCC[C@H](NCc2ccc(Cl)o2)C(=O)N2C[C@H](OC(=O)N3Cc4cccc(F)c4C3)C[C@@H]12 [Compound 914]
- IC50 [1]: < 100 nM
- EC50 [2]: < 100 nM

SMILES: Cc1cc(CN[C@H]2CCCCC/C=C\[C@@H]3C[C@@]3(C(=O)NS(=O)(=O)C3CC3)NC(=O)[C@@H]3C[C@@H](OC(=O)N4Cc5cccc(F)c5C4)CN3C2=O)oc1C [Compound 915]
- IC50 [1]: < 100 nM
- EC50 [2]: < 100 nM

SMILES: O=C1N[C@]2(C(=O)NS(=O)(=O)C3CC3)C[C@H]2/C=C\CCCCC[C@H](NCC2CCCO2)C(=O)N2C[C@H](OC(=O)N3Cc4cccc(F)c4C3)C[C@@H]12 (stereo partly shown) [Compound 916]
- IC50 [1]: < 100 nM
- EC50 [2]: < 1000 nM

SMILES: O=C1N[C@]2(C(=O)NS(=O)(=O)C3CC3)C[C@H]2/C=C\CCCCC[C@H](NCc2ccccc2C(F)(F)F)C(=O)N2C[C@H](OC(=O)N3Cc4cccc(F)c4C3)C[C@@H]12 [Compound 917]
- IC50 [1]: < 100 nM
- EC50 [2]: < 100 nM

SMILES: Cc1cccc(C)c1CN[C@H]1CCCCC/C=C\[C@@H]2C[C@@]2(C(=O)NS(=O)(=O)C2CC2)NC(=O)[C@@H]2C[C@@H](OC(=O)N3Cc4cccc(F)c4C3)CN2C1=O [Compound 918]
- IC50 [1]: < 100 nM
- EC50 [2]: < 1000 nM

SMILES: O=C1N[C@]2(C(=O)NS(=O)(=O)C3CC3)C[C@H]2/C=C\CCCCC[C@H](NC2CCCC2)C(=O)N2C[C@H](OC(=O)N3Cc4cccc(F)c4C3)C[C@@H]12 [Compound 919]
- IC50 [1]: < 100 nM
- EC50 [2]: < 10000 nM

SMILES: CC(C)(C)CN[C@H]1CCCCC/C=C\[C@@H]2C[C@@]2(C(=O)NS(=O)(=O)C2CC2)NC(=O)[C@@H]2C[C@@H](OC(=O)N3Cc4cccc(F)c4C3)CN2C1=O [Compound 920]
- IC50 [1]: < 100 nM
- EC50 [2]: < 100 nM

SMILES: O=C1N[C@]2(C(=O)NS(=O)(=O)C3CC3)C[C@H]2/C=C\CCCCC[C@H](NCC(F)(F)F)C(=O)N2C[C@H](OC(=O)N3Cc4cccc(F)c4C3)C[C@@H]12 [Compound 921]
- IC50 [1]: < 100 nM
- EC50 [2]: < 1000 nM

SMILES: CN(C)C(=S)N[C@H]1CCCCC/C=C\[C@@H]2C[C@@]2(C(=O)NS(=O)(=O)C2CC2)NC(=O)[C@@H]2C[C@@H](OC(=O)N3Cc4cccc(F)c4C3)CN2C1=O [Compound 922]
- IC50 [1]: < 100 nM
- EC50 [2]: < 1000 nM

SMILES: NC(=S)N[C@H]1CCCCC/C=C\[C@@H]2C[C@@]2(C(=O)NS(=O)(=O)C2CC2)NC(=O)[C@@H]2C[C@@H](OC(=O)N3Cc4cccc(F)c4C3)CN2C1=O [Compound 923]
- IC50 [1]: < 100 nM
- EC50 [2]: < 1000 nM

SMILES: O=C1N[C@]2(C(=O)NS(=O)(=O)C3CC3)C[C@H]2/C=C\CCCCC[C@H](Nc2nccs2)C(=O)N2C[C@H](OC(=O)N3Cc4cccc(F)c4C3)C[C@@H]12 [Compound 924]
- IC50 [1]: < 100 nM
- EC50 [2]: < 100 nM

SMILES: CC(C)(C)c1csc(N[C@H]2CCCCC/C=C\[C@@H]3C[C@@]3(C(=O)NS(=O)(=O)C3CC3)NC(=O)[C@@H]3C[C@@H](OC(=O)N4Cc5cccc(F)c5C4)CN3C2=O)n1 [Compound 925]
- IC50 [1]: < 100 nM
- EC50 [2]: < 100 nM

SMILES: O=C1N[C@]2(C(=O)NS(=O)(=O)C3CC3)C[C@H]2/C=C\CCCCC[C@H](Nc2nc(C(F)(F)F)cs2)C(=O)N2C[C@H](OC(=O)N3Cc4cccc(F)c4C3)C[C@@H]12 [Compound 926]
- IC50 [1]: < 100 nM
- EC50 [2]: < 100 nM

SMILES: O=C1N[C@]2(C(=O)NS(=O)(=O)C3CC3)C[C@H]2/C=C\CCCCC[C@H](Nc2nc(-c3ccccc3)cs2)C(=O)N2C[C@H](OC(=O)N3Cc4cccc(F)c4C3)C[C@@H]12 [Compound 927, (2R,6S,13aS,14aR,16aS,Z)-14a-(cyclopropylsulfonylcarbamoyl)-5,16-dioxo-6-(4-phenylthiazol-2-ylamino)-1,2,3,5,6,7,8,9,10,11,13a,14,14a,15,16,16a-hexadecahydrocyclopropa[e]pyrrolo[1,2-a][1,4]diazacyclopentadecin-2-yl 4-fluoroisoindoline-2-carboxylate]
- IC50 [1]: < 100 nM
- EC50 [2]: < 100 nM

SMILES: Cc1sc(N[C@H]2CCCCC/C=C\[C@@H]3C[C@@]3(C(=O)NS(=O)(=O)C3CC3)NC(=O)[C@@H]3C[C@@H](OC(=O)N4Cc5cccc(F)c5C4)CN3C2=O)nc1-c1ccccc1 [Compound 928]
- IC50 [1]: < 100 nM
- EC50 [2]: < 100 nM
